Laboratory results from patent US6849612B2, “Oligonucleotide modulation of cell adhesion” (ISIS Pharmaceuticals, Inc., priority 1993, dated 2005).
Strand notation (5' to 3'): a small letter for the sugar, then the base; units joined by * are phosphorothioate-linked, units joined directly phosphodiester-linked; [ ] holds rarer units or linkages, { } end groups; capitals alone tell only the bases. d = 2'-deoxy (DNA)

Assays:
[1] = tested on: ICAM-1; test: ELISA screening for ICAM-1 expression in interleukin-1β-stimulated cells (HUVEC and A549); type: cell-based, human; conditions: interleukin-1β-stimulated cells, two cell lines (HUVEC, A549)
[2] = tested on: VCAM-1; test: ELISA of VCAM-1 expression in TNF-stimulated HUVEC; type: cell-based, human; conditions: for VCAM-1 EXPRESSION 30 nM oligo (VCAM-1 expression is given as % of control) / VCAM-1 EXPRESSION 50 nM oligo (VCAM-1 expression is given as % of control): TNF-α 16 hours; for IC50: TNF-α, read-out: IC50 for inhibition of VCAM-1 expression (asterisk)
Description: Primary human umbilical vein endothelial (HUVEC) cells, passage 2 to 5, were plated in 96-well plates and allowed to reach confluence. Cells were washed three times with Opti-MEM (GIBCO, Grand Island N.Y.). Cells were treated with increasing concentrations of oligonucleotide diluted in Opti-MEM containing 10 μg/ml DOTMA solution (Bethesda Research Labs, Bethesda, Md.) for 4 hours at 370C. The medium was removed and replaced with EGM-UV (Clonetics, San Diego Calif.) plus oligonucleotide. Tumor necrosis factor α was added to the medium (2.5 ng/ml) and the cells were incubated an additional 4 hours at 37° C.
ELAM-1 expression was determined by ELISA. Cells were gently washed three times with Dulbecco's phosphate-buffered saline (D-PBS) prewarmed to 37° C. Cells were fixed with 95% ethanol at 4° C. for 20 minutes, washed three times with D-PBS and blocked with 2% BSA in D-PBS. Cells were incubated with ELAM-1 monoclonal antibody BBA-1 (R&D Systems, Minneapolis Minn.) diluted to 0.5 μg/ml in D-PBS containing 2% BSA for 1 hour at 37° C. Cells were washed three times with D-PBS and the bound ELAM-1 antibody detected with biotinylated goat anti-mouse secondary antibody followed by β-galactosidase-conjugated streptavidin as described in Example 1.
Inhibition of VCAM-1 expression by fifteen antisense phosphorothioate oligonucleotides was determined using the ELISA assay approximately as described in Example 12, except that cells were stimulated with TNF-àfor 16 hours and VCAM-1 expression was detected by a VCAM-1 specific monoclonal antibody (R & D Systems, Minneapolis, Minn.) used at 0.5 μg/ml.

Row | Substance | inhibition of ICAM-1 expression, relative activity in words [1] | VCAM-1 EXPRESSION 30 nM oligo (VCAM-1 expression is given as % of control) [2] | VCAM-1 EXPRESSION 50 nM oligo (VCAM-1 expression is given as % of control) [2] | IC50 [2] [µM]
1 | ISIS 1573: P=S, human ICAM-1 3′-Untranslated (2849-2866), SEQ ID NO 4, GAGGCTGAGGTGGGAGGA (antisense dG*dA*dG*dG*dC*dT*dG*dA*dG*dG*dT*dG*dG*dG*dA*dG*dG*dA) | not as active as ISIS-1939 |  |  | 
2 | ISIS 1931: P=S, human ICAM-1 AUG Codon (55-74), SEQ ID NO 7, CATAGCGAGGCTGAGGTTGC (antisense dC*dA*dT*dA*dG*dC*dG*dA*dG*dG*dC*dT*dG*dA*dG*dG*dT*dT*dG*dC) | inhibit ICAM-1 expression |  |  | 
3 | ISIS 1932: P=S, human ICAM-1 AUG Codon (72-91), SEQ ID NO 8, CGGGGGCTGCTGGGAGCCAT (antisense dC*dG*dG*dG*dG*dG*dC*dT*dG*dC*dT*dG*dG*dG*dA*dG*dC*dC*dA*dT) | slightly less active than ISIS 1570 and ISIS 1931 |  |  | 
4 | ISIS 1933: P=S, human ICAM-1 Coding Region (111-130), SEQ ID NO 9 (antisense dA*dG*dA*dG*dC*dC*dC*dC*dG*dA*dG*dC*dA*dG*dG*dA*dC*dC*dA*dG) | weak activity |  |  | 
5 | ISIS 1934: P=S, human ICAM-1 Coding Region (351-370), SEQ ID NO 10 (antisense dT*dG*dC*dC*dC*dA*dT*dC*dA*dG*dG*dG*dC*dA*dG*dT*dT*dT*dG*dA) | weak activity |  |  | 
6 | ISIS 1935: P=S, human ICAM-1 Coding Region (889-908), SEQ ID NO 11 (antisense dG*dG*dT*dC*dA*dC*dA*dC*dT*dG*dA*dC*dT*dG*dA*dG*dG*dC*dC*dT) | weak activity |  |  | 
7 | ISIS 1936: P=S, human ICAM-1 Coding Region (1459-1468), SEQ ID NO 12 (antisense dC*dT*dC*dG*dC*dG*dG*dG*dT*dG*dA*dC*dC*dT*dC*dC*dC*dC*dT*dT) | weak activity |  |  | 
8 | ISIS 1937: P=S, human ICAM-1 Termination Codon (1651-1687), SEQ ID NO 13, TCAGGGAGGCGTGGCTTGTG (antisense dT*dC*dA*dG*dG*dG*dA*dG*dG*dC*dG*dT*dG*dG*dC*dT*dT*dG*dT*dG) | moderate activity |  |  | 
9 | ISIS 1938: P=S (printed P = 5), human ICAM-1 Termination Codon (1668-1687), SEQ ID NO 14, CCTGTCCCGGGATAGGTTCA (antisense dC*dC*dT*dG*dT*dC*dC*dC*dG*dG*dG*dA*dT*dA*dG*dG*dT*dT*dC*dA) | moderate activity |  |  | 
10 | ISIS 2307: P=S, human ICAM-1 3′-Untranslated (1976-1995), SEQ ID NO 26 (antisense dT*dG*dT*dC*dC*dT*dC*dA*dT*dG*dG*dT*dG*dG*dG*dG*dC*dT*dA*dT) | least active of the series |  |  | 
11 | ISIS 2634: 2′-fluoro A, C & U; P=S, human ICAM-1 AUG-Codon (64-81), SEQ ID NO 1 (antisense TGGGAGCCATAGCGAGGC; DNA at G, 2'-fluoro at ACT, all phosphorothioate, T or U not given here) | less effective |  |  | 
12 | ISIS 2637: 2′-fluoro A, C & U, human ICAM-1 3′-Untrans. (1952-1971), SEQ ID NO 15 (antisense CCCCCACCACTTCCCCTCTC; all 2'-fluoro, backbone and T or U not given here; further chemistry not fully specified) | did not exhibit this level of activity |  |  | 
13 | ISIS 2973: 2′-O-methyl; P=S, human ICAM-1 3′-Untrans. (1952-1971), SEQ ID NO 15 (CCCCCACCACTTCCCCTCTC; listed as DNA, chemistry not fully specified) | did not exhibit this level of activity |  |  | 
14 | ISIS 2974: 2′-O-methyl; P=S, human ICAM-1 AUG Codon (64-81), SEQ ID NO 1 (TGGGAGCCATAGCGAGGC; listed as DNA, chemistry not fully specified) | approximately threefold less effective than ISIS 1570 |  |  | 
15 | ISIS 3801: phosphorothioate, human VCAM-1 3′-UTR 2872-2892, SEQ ID NO 50, AACCCAGTGCTCCCTTTGCT (DNA, all phosphorothioate, methylation of C not given here) |  | 36.5 % of control | 21.3 % of control | ≤ 0.05
16 | ISIS 3805: phosphorothioate, human VCAM-1 3′-UTR 2826-2845, SEQ ID NO 71, CCCGGCATCTTTACAAAACC (DNA, all phosphorothioate, methylation of C not given here) |  | 7.7 % of control | 44.9 % of control | ≤ 0.05
17 | ISIS 5847: phosphorothioate, human VCAM-1 3′-UTR 2957-2976, SEQ ID NO 72, AACATCTCCGTACCATGCCA (DNA, all phosphorothioate, methylation of C not given here) |  | 51.8 % of control | 24.6 % of control | ≤ 0.05
18 | ISIS 5862: phosphorothioate, human VCAM-1 5′-UTR 48-68, SEQ ID NO 62, CCTGTGTGTGCCTGGGAGGG (DNA, all phosphorothioate, methylation of C not given here) |  | 115.0 % of control | 3.5 % of control | 
19 | ISIS 5863: phosphorothioate, human VCAM-1 CODING 745-764, SEQ ID NO 64, CAGCCTGCCTTACTGTGGGC (DNA, all phosphorothioate, methylation of C not given here) |  | 95.8 % of control | 66.7 % of control | 
20 | ISIS 5874: phosphorothioate, human VCAM-1 CODING 1032-1052, SEQ ID NO 65, CTTGAACAATTAATTCCACCT (DNA, all phosphorothioate, methylation of C not given here) |  | 66.5 % of control | 35.3 % of control | ≤ 0.05
21 | ISIS 5875: phosphorothioate, human VCAM-1 CODING 2183-2203, SEQ ID NO 68, GTCTTTGTTGTTTTCTCTTCC (DNA, all phosphorothioate, methylation of C not given here) |  | 59.2 % of control | 34.8 % of control | ≤ 0.05
22 | ISIS 5876: phosphorothioate, human VCAM-1 CODING 2038-2057, SEQ ID NO 67, CTGTGTCTCCTGTCTCCGCT (DNA, all phosphorothioate, methylation of C not given here) |  | 43.5 % of control | 26.6 % of control | ≤ 0.05
23 | ISIS 5884: phosphorothioate, human VCAM-1 5′-UTR 1-19, SEQ ID NO 60, CGATGCAGATACCGCGGAGT (antisense dC*dG*dA*dT*dG*dC*dA*dG*dA*dT*dA*dC*dC*dG*dC*dG*dG*dA*dG*dT) |  | 79.2 % of control | 37.2 % of control | ≤ 0.05
24 | ISIS 5885: phosphorothioate, human VCAM-1 E/I 1633-1649 + intron, SEQ ID NO 66, TTACCATTGACATAAAGTGTT (DNA, all phosphorothioate, methylation of C not given here) |  | 84.4 % of control | 52.4 % of control | 
